Results taken from patent publication US20230392217A1 (priority 2020, published 2023).
Where two headings read alike, the source gives them in different places.

How the values were obtained:
[1] = tested on: methicillin-sensitive S. aureus (MSSA); conditions: cited from earlier work
[2] = tested on: SosA protein of Staphylococcus aureus; assay: SosA expression of Staphylococcus aureus according to concentration of ciprofloxacin, detected using SosA antibodies; assay type: cell-based; conditions: detected using the SosA antibody, FIG. 10
Description: Pellets of microorganisms were suspended with 1 ml of DPBS containing sosA-specific antibodies that were diluted at 1:2,000 and cultured overnight at 37° C., 180 rpm. Thereafter, centrifugation was performed at 13,000 rpm for 1 minute, secondary antibodies (anti-mouse FITC, Abcam) diluted at 1:500 were treated, and culture was performed at 37° C., 180 rpm for 3 hours. 100 ul of a sample was transferred to a 12-well plate containing an 18 mm cover glass and centrifuged at 1,100 rpm for 1 minute, and the bacteria were attached to a cover glass. The plates were washed three times with DPBS, and centrifugation was performed at 1,100 rpm for 1 minute. The cover glass was attached to the slide, and then imaging was performed using the Zeiss LSM 5 live confocal microscope. Images were acquired using Plan-Apochromat 63×1.4 NA objectives, and analysis was performed to detect GFP fluorescence by setting to 488 nm for excitation wavelength and 513±12 nm for emission wavelength.
In addition, each sample was transferred to a 96-well plate, and absorbance measurement and fluorescence analysis were performed using Ensight (PerkinElmer). In the case of green fluorescence, the excitation wavelength was at 488 nm and the emission wavelength was at 528 nm, and in the case of red fluorescence, the excitation wavelength was at 558 nm and the emission wavelength was at 615 nm. […]

[3] = tested on: methicillin-resistant S. aureus (MRSA); conditions: cited from earlier work

**Q.** Which results are given for O=C(O)c1cn(C2CC2)c2cc(N3CCNCC3)c(F)cc2c1=O [Ciprofloxacin, ciprofloxacin]?
**A.** antibiotic susceptibility/resistance ([1]; strain MSSA #1): Susceptible; antibiotic susceptibility/resistance ([1]; strain MSSA #2): Susceptible; antibiotic susceptibility/resistance ([1]; strain MSSA #3): Susceptible; antibiotic susceptibility/resistance ([1]; strain MSSA #4): Susceptible; antibiotic susceptibility/resistance ([1]; strain MSSA #5): Susceptible; antibiotic susceptibility/resistance ([1]; strain MSSA #6): Susceptible; antibiotic susceptibility/resistance ([1]; strain MSSA #7): Resistant; antibiotic susceptibility/resistance ([1]; strain MSSA #8): Resistant; antibiotic susceptibility/resistance ([1]; strain MSSA #9): Susceptible; antibiotic susceptibility/resistance ([1]; strain MSSA #10): Susceptible; antibiotic susceptibility/resistance ([1]; strain MSSA #11): Susceptible; antibiotic susceptibility/resistance ([1]; strain MSSA #12): Susceptible; antibiotic susceptibility/resistance ([1]; strain MSSA #13): Susceptible; antibiotic susceptibility/resistance ([1]; strain MSSA #14): Susceptible; antibiotic susceptibility/resistance ([1]; strain MSSA #15): Susceptible; antibiotic susceptibility/resistance ([1]; strain MSSA #16): Susceptible; antibiotic susceptibility/resistance ([1]; strain MSSA #17): Susceptible; antibiotic susceptibility/resistance ([1]; strain MSSA #18): Susceptible; antibiotic susceptibility/resistance ([1]; strain MSSA #19): Susceptible; antibiotic susceptibility/resistance ([1]; strain MSSA #20): Resistant; expression of SosA [2]: increases with the increase in the administration concentration; antibiotic susceptibility/resistance ([3]; strain MRSA #1): Resistant; antibiotic susceptibility/resistance ([3]; strain MRSA #2): Resistant; antibiotic susceptibility/resistance ([3]; strain MRSA #3): Susceptible; antibiotic susceptibility/resistance ([3]; strain MRSA #4): Susceptible; antibiotic susceptibility/resistance ([3]; strain MRSA #5): Resistant; antibiotic susceptibility/resistance ([3]; strain MRSA #6): Resistant; antibiotic susceptibility/resistance ([3]; strain MRSA #7): Resistant; antibiotic susceptibility/resistance ([3]; strain MRSA #8): Resistant; antibiotic susceptibility/resistance ([3]; strain MRSA #9): Resistant; antibiotic susceptibility/resistance ([3]; strain MRSA #10): Resistant; antibiotic susceptibility/resistance ([3]; strain MRSA #11): Resistant; antibiotic susceptibility/resistance ([3]; strain MRSA #12): Resistant; antibiotic susceptibility/resistance ([3]; strain MRSA #13): Resistant; antibiotic susceptibility/resistance ([3]; strain MRSA #14): Resistant; antibiotic susceptibility/resistance ([3]; strain MRSA #15): Resistant; antibiotic susceptibility/resistance ([3]; strain MRSA #16): Resistant; antibiotic susceptibility/resistance ([3]; strain MRSA #17): Resistant; antibiotic susceptibility/resistance ([3]; strain MRSA #18): Susceptible; antibiotic susceptibility/resistance ([3]; strain MRSA #19): Resistant; antibiotic susceptibility/resistance ([3]; strain MRSA #20): Resistant; antibiotic susceptibility/resistance ([3]; strain MRSA #21): Resistant; antibiotic susceptibility/resistance ([3]; strain MRSA #22): Resistant; antibiotic susceptibility/resistance ([3]; strain MRSA #23): Resistant; antibiotic susceptibility/resistance ([3]; strain MRSA #24): Susceptible; antibiotic susceptibility/resistance ([3]; strain MRSA #25): Resistant; antibiotic susceptibility/resistance ([3]; strain MRSA #26): Susceptible; antibiotic susceptibility/resistance ([3]; strain MRSA #27): Susceptible; antibiotic susceptibility/resistance ([3]; strain MRSA #28): Resistant; antibiotic susceptibility/resistance ([3]; strain MRSA #29): Resistant; antibiotic susceptibility/resistance ([3]; strain MRSA #30): Resistant
